Measurements as given in patent US20200289481A1, “SUSTAINED-RELEASE PHARMACEUTICAL COMPOSITION” (ISHIHARA SANGYO KAISHA, LTD., priority 2017, published 2020).
Where a name gives a salt, the structure may show the parent alone.

How the values were obtained:
[1] = Evaluation test of elution in phosphate-buffered saline (pH 7.4), elution rate of compound 1 by UPLC-MS; assay type: physicochemical; conditions: phosphate-buffered saline pH 7.4, 37°C, shaking 60 strokes/min
Experimental: (§1) Quantitative determination of the concentration of the compound 1 in the following Test Examples and Reference Examples was performed using ultra-high performance liquid chromatography with a single quadrupole mass spectrometer as a detector.
An evaluation test of the elution of the fine particle a prepared in Reference Example 1-1 was performed in the same manner as in Test Example 1 mentioned later. Specifically, the fine particle a (10 mg) was added to phosphate-buffered saline (pH 7.4, 30 mL), and using a shaker, the mixture was horizontally shaken at 37° C. for 24 hours at a shaking speed of 60 strokes/min and with a shaking width of 2.0 cm/stroke to evaluate “elution”. Quantitative determination of the concentration of the compound 1 was performed using ultra-high performance liquid chromatography with a single quadrupole mass spectrometer as a detector to calculate an elution rate. The test results of the fine particle a are shown in Table 1 below together with the test results of the compound 1 bulk powder obtained in Test Example 1 mentioned later.
Using the fine particles A, B, C, D and E prepared in Test Example 1-1 and the compound 1 bulk powder, an evaluation test of each elution was performed. Each of the fine particles A, B, C, D and E and the compound 1 bulk powder (10 mg) was added to phosphate-buffered saline (pH 7.4, 30 mL), and using a shaker, the mixtures were horizontally shaken at 37° C. for 24 hours at a shaking speed of 60 strokes/min and with a shaking width of 2.0 cm/stroke to evaluate “elution”. Quantitative determination of the concentration of the compound 1 was performed using ultra-high performance liquid chromatography with a single quadrupole mass spectrometer as a detector to calculate an elution rate.
Using the fine particle F prepared in Test Example 2-1 and the compound 1 bulk powder, an evaluation test of each elution was performed in the same manner as in Test Example 1. Each of the fine particle F and the compound 1 bulk powder (10 mg) was added to phosphate-buffered saline (pH 7.4, 30 mL), and using a shaker, the mixtures were horizontally shaken at 37° C. for 72 hours at a shaking speed of 60 strokes/min and with a shaking width of 2.0 cm/stroke to evaluate “elution”.

[2] = Pharmacokinetic evaluation: concentration of compound 1 in plasma after single administration to SD male rats; assay type: in vivo; conditions: for BA / AUC(0-inf) / Cmax / Tmax / half-life: 5 mg/kg as compound 1, single, SD male rats; for AUC(0-inf) / Cmax / Tmax / half-life: rat, plasma
Experimental: as §1
To evaluate the sustained-release ability of fine particle B, the concentration of the compound 1 in blood was measured over time after subcutaneous administration of the fine particle B or the compound 1 bulk powder to rats or after oral administration of the compound 1 bulk powder to rats. The fine particle B was suspended in physiological saline and the compound 1 bulk powder was dissolved in physiological saline, and then 5 mg/kg each as an amount of the compound 1 was singly administered to SD male rats. After administration, blood was collected over time from the tail vein, and the blood was transferred into a micro test tube treated with heparin, and immediately cooled in ice. After cooling in ice, the blood was immediately centrifuged at 4° C. and 10,000 g for 10 minutes. The concentration of the compound 1 in plasma thus obtained was quantitatively determined using ultra-high performance liquid chromatography with a single quadrupole mass spectrometer as a detector.
Cmax, Tmax, T1/2, AUC0-∞ and BA represent maximum blood concentration (concentration at the peak of blood concentration curve), time to reach maximum blood concentration (time to reach the peak of blood concentration curve), half-life of the concentration of drug in blood, area under curve from initiation of administration to drug elimination and bioavailability, respectively.
To evaluate the sustained-release ability of fine particle F, the concentration of the compound 1 in blood was measured over time after subcutaneous administration of the fine particle F prepared in Test Example 2-1 or the compound 1 bulk powder to rats. The method was same as in Test Example 1-3. Specifically, the fine particle F was suspended in physiological saline and the compound 1 bulk powder was dissolved in physiological saline, and then 5 mg/kg each as an amount of the compound 1 was singly subcutaneously administered to SD male rats. After subcutaneous administration, blood was collected over time from the tail vein, and the blood was transferred into a micro test tube treated with heparin, and immediately cooled in ice. After cooling in ice, the blood was immediately centrifuged at 4° C. and 10,000 g for 10 minutes. The concentration of the compound 1 in plasma thus obtained was quantitatively determined using ultra-high performance liquid chromatography with a single quadrupole mass spectrometer as a detector.
To evaluate the sustained-release ability of the hydrogel a prepared in Reference Example 3-1, the concentration of the compound 1 in blood was measured over time after subcutaneous administration of the hydrogel a or the compound 1 bulk powder to rats. Specifically, the hydrogel a or the compound 1 bulk powder at a dose of 5 mg/kg as an amount of the compound 1 was singly subcutaneously administered to SD male rats. After subcutaneous administration, blood was collected over time from the tail vein, and the blood was transferred into a micro test tube treated with heparin, and immediately cooled in ice. After cooling in ice, the blood was immediately centrifuged at 4° C. and 10,000 g for 10 minutes. The concentration of the compound 1 in plasma thus obtained was quantitatively determined using ultra-high performance liquid chromatography with a single quadrupole mass spectrometer as a detector. […]

[3] = sc, subcutaneous administration
[4] = subcutaneous administration, 5 mg/kg as compound 1, SD male rats

Elution rate ([1]; Time 0 h): 0%
Elution rate ([1]; Time 0.5 h): 83.73 ± 4.31%
Elution rate ([1]; Time 1 h): 93.59 ± 1.63%
Elution rate ([1]; Time 3 h): 94.77 ± 2.26%
Elution rate ([1]; Time 6 h): 92.00 ± 2.45%
Elution rate ([1]; Time 12 h): 91.63 ± 1.84%
Elution rate ([1]; Time 24 h): 97.10 ± 1.96%
Elution rate ([1]; Time 48 h): 91.10 ± 3.80%
Elution rate ([1]; Time 72 h): 93.29 ± 1.36%
BA ([2]; oral administration): 41%
AUC(0-inf) [2, 3]: 8550 ± 600 ng·h/mL
Cmax [2, 3]: 9600 ± 700 ng/mL
Tmax [2, 3]: 15 min
half-life [2, 3]: 21.6 min
AUC(0-inf) ([2]; oral administration): 5160 ± 200 ng·h/mL
Cmax ([2]; oral administration): 3100 ± 500 ng/mL
Tmax ([2]; oral administration): 15 min
half-life ([2]; oral administration): 68.4 ± 12 min
Concentration of compound 1 in plasma at 12 hours after administration [2, 4]: below the detection limit
Concentration of compound 1 in plasma at 24 hours after administration [2, 4]: below the detection limit
BA ([2]; subcutaneous administration): 67%
SMILES: CCS(=O)(=O)Nc1ncc(C(F)(F)F)cc1NC(=O)C1CCCCC1 [Compound 1 bulk powder, N-(2-ethylsulfonylamino-5-trifluoromethyl-3-pyridyl)cyclohexanecarboxamide-monosodium salt-monohydrate]
